One assay deals with CDK12/CyclinK (Homo sapiens (Human), UniProt Q9NYV4). In words: CDK12/CycK high ATP kinase assay (TR-FRET). As to conditions: for IC50: 2 mM ATP (high ATP), median, read-out: CDK12/CyclinK, 2 mM ATP (high ATP), IC50 - [mol/l] (median); for (IC50 CDK12 high ATP) to (Degradation DC50 CDK12) ratio: IC50 CDK12 at 2 mM ATP divided by CDK12 degradation DC50 (IF, CAL-120). The class given is biochemical. As for the experimental part: In the context of the present invention, the term “IC50 CDK12 hATP” refers to the IC50 values obtained according to the assay described in this section (2.2) herein below, i.e. the IC50 values for the inhibition of CDK12 at high (2 mM) ATP.
CDK12/CycK-inhibitory activity of compounds of the present invention at 2 millimol/L adenosine-tri-phosphate (ATP) was quantified employing the TR-FRET (TR-FRET=Time Resolved Fluorescence Energy Transfer) based CDK12/CycK activity inhibition assay as described in the following paragraphs.
A complex of human recombinant CDK12 and human recombinant CycK (both N-terminally His-tagged, expression and purification as described above) was used as enzyme. As substrate for the kinase reaction biotinylated peptide biotin-Ahx-KFELLPTPPLSPSRRSGL (C-terminus in amid form) was used which can be purchased e.g. form the company Biosyntan (Berlin-Buch, Germany).
For the assay 50 nanoL of a 100 fold concentrated solution of the test compound in DMSO was pipetted into either a black low volume 384 well microtiter plate or a black 1536 well microtiter plate (both Greiner Bio-One, Frickenhausen, Germany), 2 microL of a solution of CDK12/CycK in aqueous assay buffer [25 millimol/L HEPES pH 7.5, 20 millimol/L MgCl2, 5 millimol/L β-glycerophosphate, 2 millimol/L EGTA, 1.0 millimol/L dithiothreitol, 0.01% (v/v) Nonidet-P40 (Sigma), 0.01% (w/v) bovine serum albumin] were added and the mixture was incubated for 15 min at 22° C. to allow pre-binding of the test compounds to the enzyme before the start of the kinase reaction. Then the kinase reaction was started by the addition of 3 microL of a solution ATP (3.33 millimol/L=>final conc. in the 5 microL assay volume is 2 millimol/L) and substrate (1.67 micromol/L=>final conc. in the 5 microL assay volume is 1 micromol/L) in assay buffer and the resulting mixture was incubated for a reaction time of 60 min at 22° C. The concentration of CDK12/CycK was adjusted depending of the activity of the enzyme lot and was chosen appropriate to have the assay in the linear range, typical concentrations were about 0.75 nanomol/L. The reaction was stopped by the addition of 3 microL of a solution of TR-FRET detection reagents (125 nanomol/L streptavidine-XL665 [Cisbio Bioassays, Codolet, France] and 0.67 nanomol/L anti-Phospho-c-Myc (Ser 62) (E1J4K)-antibody from Cell Signalling [#13748] and 2 nanomol/L LANCE EU-W1024 labeled anti-rabbit IgG antibody [Perkin-Elmer, product no. 0083]) in an aqueous EDTA-solution (133 millimol/L EDTA, 0.27% (w/v) bovine serum albumin in 66.7 millimol/L HEPES pH 7.5).
The resulting mixture was incubated 1 h at 22° C. to allow the formation of complex between the phosphorylated biotinylated peptide and the detection reagents. Subsequently the amount of phosphorylated substrate was evaluated by measurement of the resonance energy transfer from the Eu-chelate to the streptavidine-XL. Therefore, the fluorescence emissions at 620 nm and 665 nm after excitation at 350 nm was measured in a TR-FRET reader, e.g. a Pherastar FS (BMG Labtechnologies, Offenburg, Germany) or a Viewlux (Perkin-Elmer). The ratio of the emissions at 665 nm and at […] was taken as the measure for the amount of phosphorylated substrate. The data were normalised (enzyme reaction without inhibitor=0% inhibition, all other assay components but no enzyme=100% inhibition).
A general note: In TR-FRET formats the signal depends on donor and acceptor labels being close together.

Assay [1] concerns MDA-MB-231, human breast cancer cells. In words: Proliferation assay MDA-MB-231 (crystal violet). Format: cell-based. The settings on record: 96 h, MDA-MB-231 parental cells, 4 days, median, read-out: Prolif-MDA MB-231, IC50 - [mol/l] (median). As for the experimental part: Human tumour cells were originally obtained from the American Type Culture Collection (ATCC), or from the Deutsche Sammlung von Mikroorganismen und Zellkulturen (DSMZ, German Collection of Microorganisms and Cell Cultures). Cultivated tumour cells (CAL-120, human breast adenocarcinoma cells, DSMZ ACC-459; MDA-MB-231, human breast cancer cells, ATCC HTB-26) were plated at a density of 4,000 cells/well in a 96-well multitier plate in 200 microL of their respective growth medium supplemented 10% fetal calf serum. After 24 hours, the cells of one plate (zero-point plate) were stained with crystal violet (see below), while the medium of the other plates was supplemented with the test substances in various concentrations (0 micromol/L, as well as in the range of 0.01-10 micromol/L; the final concentration of the solvent dimethyl sulfoxide was adjusted to 0.1%) using a Tecan HP D300 Digital Dispenser. The cells were incubated for 4 days in the presence of test substances. Cell proliferation was determined by staining the cells with crystal violet: the cells were fixed by adding 20 microL/measuring point of an 11% glutaric aldehyde solution for 15 minutes at room temperature. After three washing cycles of the fixed cells with water, the plates were dried at room temperature. The cells were stained by adding 100 microL/measuring point of a 0.1% crystal violet solution (pH 3.0). After three washing cycles of the stained cells with water, the plates were dried at room temperature. The dye was dissolved by adding 100 microL/measuring point of a 10% acetic acid solution. The extinction was determined by photometry at a wavelength of 595 nm. The change of cell number, in percent, was calculated by normalization of the measured values to the extinction values of the zero-point plate (=0%) and the extinction of the untreated (0 μM) cells (=100%). The IC50 values (inhibitory concentration at 50% of maximal effect) were determined by means of a 4 parameter fit.

For a further assay, the system named is CYCLIN K. The assay can be described thus: CYCLIN K nuclear protein level: immunofluorescence/high content analysis in CAL-120 cells. As to conditions: 24 h, nuclear CCNK staining intensity, median, read-out: CYCLIN K degradation IF, DC50 - [mol/l] (median). The class given is cell-based, human. On the procedure: CAL-120 human breast cancer cells (DSMZ ACC 459) are seeded in 1536-well microtiter plates (800 cells per well) containing 50 nanoL of compounds in Dose-Response. Control wells received DMSO or Example 4. Plates are then incubated for 24 h at 37° C. in an humidified incubator and fixed with 4% PFA for 10 min. Then immunofluorescence (IF) against CYCLIN K (ThermoFisher Scientific CCNK Antibody #PA5-85020, rabbit, 1:200 dilution) is performed using standard IF protocols. Cells are then stained with Hoechst 33342 (Life Technologies, H-1399, 0.1 microg/ml) and imaged on an automated confocal microscopy system (e.g. Perkin Elmer Opera Phenix). Nuclear and cytoplasmic intensity as well as the nuclear/cytoplasmic intensity ratio is determined by automated image analysis using custom generated scripts (MetaXpress). Data is then transferred to Genedata Screener software, normalized to DMSO and control and DC50 values (degrading concentration to achieve 50% reduction of nuclear CCNK staining intensity relative to controls) are reported.

The structures appear in SMILES notation.

Sequence of CDK12/CyclinK (Q9NYV4 other isoform, or with tags, fused parts or gaps): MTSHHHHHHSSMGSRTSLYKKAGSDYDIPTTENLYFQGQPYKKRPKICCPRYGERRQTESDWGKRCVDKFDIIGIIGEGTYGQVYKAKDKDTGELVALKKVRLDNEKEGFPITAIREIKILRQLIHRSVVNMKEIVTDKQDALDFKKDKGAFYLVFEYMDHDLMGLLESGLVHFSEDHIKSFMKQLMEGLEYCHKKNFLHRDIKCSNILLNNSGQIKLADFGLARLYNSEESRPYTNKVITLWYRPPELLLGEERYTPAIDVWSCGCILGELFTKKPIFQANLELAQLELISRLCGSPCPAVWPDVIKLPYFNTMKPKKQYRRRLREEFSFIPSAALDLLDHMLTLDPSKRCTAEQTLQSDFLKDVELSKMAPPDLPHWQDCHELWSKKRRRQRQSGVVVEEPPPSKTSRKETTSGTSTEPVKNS
Sequence of CDK12/CyclinK (O75909 other isoform, or with tags, fused parts or gaps partner): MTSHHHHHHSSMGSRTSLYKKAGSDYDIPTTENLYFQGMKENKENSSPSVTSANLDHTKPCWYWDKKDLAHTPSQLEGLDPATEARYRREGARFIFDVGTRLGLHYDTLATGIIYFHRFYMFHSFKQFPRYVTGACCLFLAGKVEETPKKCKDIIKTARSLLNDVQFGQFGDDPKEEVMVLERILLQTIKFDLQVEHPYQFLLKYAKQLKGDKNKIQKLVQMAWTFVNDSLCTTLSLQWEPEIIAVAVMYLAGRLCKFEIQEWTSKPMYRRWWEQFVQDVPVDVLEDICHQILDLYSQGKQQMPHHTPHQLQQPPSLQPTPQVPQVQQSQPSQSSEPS

Take `FC(F)(F)c1ccc(-c2nnc(CNc3nc(N4CCOCC4)nc4c(Br)cnn34)[nH]2)cc1` [Example 1, 8-bromo-2-(morpholin-4-yl)-N-({5-[4-(trifluoromethyl)phenyl]-4H-1,2,4-triazol-3-yl}methyl)pyrazolo[1,5-a][1,3,5]triazin-4-amine]: on CDK12/CyclinK, the IC50 is 1830 nM and the “(IC50 CDK12 high ATP) to (Degradation DC50 CDK12) ratio” value was found to be 0.77.
As to `FC(F)(F)Oc1ccc(-c2nnc(CNc3nc(N4CCOCC4)nc4c(Br)cnn34)[nH]2)cc1` [Example 2, 8-bromo-2-(morpholin-4-yl)-N-({5-[4-(trifluoromethoxy)phenyl]-4H-1,2,4-triazol-3-yl}methyl)pyrazolo[1,5-a][1,3,5]triazin-4-amine], at CDK12/CyclinK, the IC50 was 750 nM and the “(IC50 CDK12 high ATP) to (Degradation DC50 CDK12) ratio” value was below 0.27.
Consider `FC(F)(F)c1ccc(-c2cnc(CNc3nc(N4CCOCC4)nc4c(Br)cnn34)[nH]2)cc1` [Example 3, 8-bromo-2-(morpholin-4-yl)-N-({5-[4-(trifluoromethyl)phenyl]-1H-imidazol-2-yl}methyl)pyrazolo[1,5-a][1,3,5]triazin-4-amine], for which, on CDK12/CyclinK, the IC50 was 267 nM and the “(IC50 CDK12 high ATP) to (Degradation DC50 CDK12) ratio” value is below 0.09.
On to `FC(F)(F)Oc1ccc(-c2cnc(CNc3nc(N4CCOCC4)nc4c(Br)cnn34)[nH]2)cc1` [Example 4, 8-bromo-2-(morpholin-4-yl)-N-({5-[4-(trifluoromethoxy)phenyl]-1H-imidazol-2-yl}methyl)pyrazolo[1,5-a][1,3,5]triazin-4-amine], for which the IC50 in assay [1] is 123 nM. Moreover, at CDK12/CyclinK, the IC50 stood at 34.8 nM and the “(IC50 CDK12 high ATP) to (Degradation DC50 CDK12) ratio” value is below 0.03.
For `FC(F)(F)c1ccc(-c2cnc(CNc3nc(N4CCOCC4)nn4c(C(F)(F)F)cnc34)[nH]2)cc1` [Example 7, 2-(morpholin-4-yl)-7-(trifluoromethyl)-N-({5-[4-(trifluoromethyl)phenyl]-1H-imidazol-2-yl}methyl)imidazo[2,1-f][1,2,4]triazin-4-amine], the IC50 in assay [1] amounted to 90.5 nM; on CDK12/CyclinK, 26.3 nM. In addition, the “(IC50 CDK12 high ATP) to (Degradation DC50 CDK12) ratio” value at CDK12/CyclinK came out at 0.04.
The matching figures for `FC(F)(F)c1ccc(-c2cnc(CNc3nc(N4CCOCC4)nc4c(C(F)(F)F)cnn34)[nH]2)cc1` [Example 9, 2-(morpholin-4-yl)-8-(trifluoromethyl)-N-({5-[4-(trifluoromethyl)phenyl]-1H-imidazol-2-yl}methyl)pyrazolo[1,5-a][1,3,5]triazin-4-amine]: 190 nM, 9.21 nM and 9.69E−03.
The matching figures for `FC(F)(F)c1ccc(-c2cnc(CNc3nc(N4CCOCC4)nn4c(C(F)(F)F)cnc34)[nH]2)cn1` [Example 12, 2-(morpholin-4-yl)-7-(trifluoromethyl)-N-({5-[6-(trifluoromethyl)pyridin-3-yl]-1H-imidazol-2-yl}methyl)imidazo[2,1-f][1,2,4]triazin-4-amine]: 22.5 nM, 3.09 nM and below 3.09E−3.
As to `FC(F)(F)Oc1ccc(-c2nnc(CNc3nc(N4CCOCC4)nn4c(C(F)(F)F)cnc34)[nH]2)cc1` [Example 14, 2-(morpholin-4-yl)-N-({5-[4-(trifluoromethoxy)phenyl]-4H-1,2,4-triazol-3-yl}methyl)-7-(trifluoromethyl)imidazo[2,1-f][1,2,4]triazin-4-amine], in assay [1], the IC50 stood at 319 nM.
As to `COc1ccc(-c2nnc(CNc3nc(N4CCOCC4)nn4c(C(F)(F)F)cnc34)[nH]2)cn1` [Example 18, N-{[5-(6-methoxypyridin-3-yl)-4H-1,2,4-triazol-3-yl]methyl}-2-(morpholin-4-yl)-7-(trifluoromethyl)imidazo[2,1-f][1,2,4]triazin-4-amine], the IC50 in assay [1] came to 72.1 nM. Also, the DC50 with CYCLIN K was above 1000 nM.
For `FC(F)(F)Oc1ccc(-c2nnc(CNc3nc(N4CCOCC4)nn4c(C(F)(F)F)cnc34)[nH]2)cn1` [Example 19, 2-(morpholin-4-yl)-N-({5-[6-(trifluoromethoxy)pyridin-3-yl]-4H-1,2,4-triazol-3-yl}methyl)-7-(trifluoromethyl)imidazo[2,1-f][1,2,4]triazin-4-amine], the IC50 came out at 37.5 nM in assay [1] and 4.14 nM at CDK12/CyclinK.
Consider `COc1ccc(-c2cnc(CNc3nc(N4CCOCC4)nc4c(C(F)(F)F)cnn34)[nH]2)cn1` [Example 21, N-{[5-(6-methoxypyridin-3-yl)-1H-imidazol-2-yl]methyl}-2-(morpholin-4-yl)-8-(trifluoromethyl)pyrazolo[1,5-a][1,3,5]triazin-4-amine], for which, in assay [1], the IC50 was found to be 98.3 nM.
For the compound `Cc1ccc(-c2nnc(CNc3nc(N4CCOCC4)nc4c(C(F)(F)F)cnn34)[nH]2)cn1` [Example 22, N-{[5-(6-methylpyridin-3-yl)-4H-1,2,4-triazol-3-yl]methyl}-2-(morpholin-4-yl)-8-(trifluoromethyl)pyrazolo[1,5-a][1,3,5]triazin-4-amine], the IC50 in assay [1] came to 286 nM. Moreover, at CDK12/CyclinK, the IC50 came to 489 nM and the “(IC50 CDK12 high ATP) to (Degradation DC50 CDK12) ratio” value is listed as below 0.49.
For `FC(F)(F)c1ccc(-c2cnc(CNc3nc(N4CCOCC4)nc4c(C(F)(F)F)cnn34)[nH]2)cn1` [Example 24, 2-(morpholin-4-yl)-8-(trifluoromethyl)-N-({5-[6-(trifluoromethyl)pyridin-3-yl]-1H-imidazol-2-yl}methyl)pyrazolo[1,5-a][1,3,5]triazin-4-amine], in assay [1], the IC50 was 21.7 nM. Also, in the assay with CYCLIN K, the DC50 is above 1000 nM.

The values are drawn from patent US20250066370A1, “BICYCLIC TRIAZINE DERIVATIVES FOR THE TREATMENT OF CANCER” (DEUTSCHES KREBSFORSCHUNGSZENTRUM, priority 2022, published 2025).
